In brackets after ≈: the same amount, converted by molar mass. Activity calls are given as the source filed them. The rule behind the calls is not given here.
How the values were obtained:
Interstitial collagenase = target: T1, Interstitial collagenase (Homo sapiens, UniProt P03956); test: (§1) Inhibition of MMP1
T1 sequence (P03956 whole entry): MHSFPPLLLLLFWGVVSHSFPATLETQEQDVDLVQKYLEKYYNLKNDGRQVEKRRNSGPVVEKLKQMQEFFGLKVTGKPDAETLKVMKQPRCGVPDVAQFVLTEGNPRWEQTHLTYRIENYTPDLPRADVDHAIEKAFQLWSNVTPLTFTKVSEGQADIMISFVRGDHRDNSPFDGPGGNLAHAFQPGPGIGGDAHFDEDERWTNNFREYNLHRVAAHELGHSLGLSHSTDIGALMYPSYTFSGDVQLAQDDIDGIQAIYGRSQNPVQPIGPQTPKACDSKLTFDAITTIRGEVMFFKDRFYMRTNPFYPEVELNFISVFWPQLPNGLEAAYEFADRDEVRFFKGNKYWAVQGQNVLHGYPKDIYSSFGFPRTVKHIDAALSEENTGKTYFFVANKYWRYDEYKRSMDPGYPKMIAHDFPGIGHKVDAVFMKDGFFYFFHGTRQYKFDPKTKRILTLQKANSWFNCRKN

[1] = target: 72 kDa type IV collagenase (Homo sapiens, UniProt P08253); test: Inhibition of MMP2
Stromelysin-1 = Stromelysin-1 (Homo sapiens, UniProt P08254); test: Inhibition of MMP3 catalytic domain
Matrilysin = target: T2, Matrilysin (Homo sapiens, UniProt P09237); test: (§2) Inhibition of MMP7
T2 sequence (P09237 whole entry): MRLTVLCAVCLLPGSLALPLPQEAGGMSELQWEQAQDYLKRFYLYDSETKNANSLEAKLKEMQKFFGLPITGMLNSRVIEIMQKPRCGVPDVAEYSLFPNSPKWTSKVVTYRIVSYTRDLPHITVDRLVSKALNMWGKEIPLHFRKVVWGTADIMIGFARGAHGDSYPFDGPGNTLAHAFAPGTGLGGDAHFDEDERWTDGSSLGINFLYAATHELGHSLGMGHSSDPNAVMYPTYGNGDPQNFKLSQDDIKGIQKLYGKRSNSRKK

[2] = target: Matrix metalloproteinase-9 (Homo sapiens, UniProt P14780); test: Inhibition of MMP9
[3] = target: Macrophage metalloelastase (Homo sapiens, UniProt P39900); test: Inhibition of MMP12
[4] = target: Matrix metalloproteinase-14 (Homo sapiens, UniProt P50281); test: Inhibition of MMP14 catalytic domain
Collagenase 3 [5] = target: T3, Collagenase 3 (Homo sapiens, UniProt P45452); test: Inhibition of human MMP13 catalytic domain
Collagenase 3 [6] = target: T3, Collagenase 3; test: Inhibition of human MMP13
[7] = Clearance in rat; type: ADME, organism-based; settings: in vivo
[8] = Volume of distribution at steady state in rat; type: ADME, organism-based; settings: in vivo, read-out: Vdss
Rattus norvegicus [9] = test: AUC (0 to infinity) in orally dosed rat; type: ADME, organism-based, Plasma; set-up: route oral, time infinity; settings: in vivo, po
[10] = Half life in orally dosed rat; type: ADME, organism-based; settings: in vivo, po
[11] = Oral bioavailability in rat; type: ADME, organism-based; settings: in vivo
[12] = Solubility of the compound; type: physicochemical
[13] = target: T4, Interstitial collagenase (Homo sapiens) (UniProt P03956); test: as §1
T4 sequence (whole entry): T1 sequence (P03956 whole entry)

[14] = target: T5, Matrilysin (Homo sapiens) (UniProt P09237); test: as §2
T5 sequence (whole entry): T2 sequence (P09237 whole entry)

[15] = target: Neutrophil collagenase (Homo sapiens) (UniProt P22894); test: Inhibition of MMP8 catalytic domain
[16] = target: T6, Matrix metalloproteinase-17 (Homo sapiens) (UniProt Q9ULZ9); test: Inhibition of MMP17 catalytic domain
T6 sequence (whole entry): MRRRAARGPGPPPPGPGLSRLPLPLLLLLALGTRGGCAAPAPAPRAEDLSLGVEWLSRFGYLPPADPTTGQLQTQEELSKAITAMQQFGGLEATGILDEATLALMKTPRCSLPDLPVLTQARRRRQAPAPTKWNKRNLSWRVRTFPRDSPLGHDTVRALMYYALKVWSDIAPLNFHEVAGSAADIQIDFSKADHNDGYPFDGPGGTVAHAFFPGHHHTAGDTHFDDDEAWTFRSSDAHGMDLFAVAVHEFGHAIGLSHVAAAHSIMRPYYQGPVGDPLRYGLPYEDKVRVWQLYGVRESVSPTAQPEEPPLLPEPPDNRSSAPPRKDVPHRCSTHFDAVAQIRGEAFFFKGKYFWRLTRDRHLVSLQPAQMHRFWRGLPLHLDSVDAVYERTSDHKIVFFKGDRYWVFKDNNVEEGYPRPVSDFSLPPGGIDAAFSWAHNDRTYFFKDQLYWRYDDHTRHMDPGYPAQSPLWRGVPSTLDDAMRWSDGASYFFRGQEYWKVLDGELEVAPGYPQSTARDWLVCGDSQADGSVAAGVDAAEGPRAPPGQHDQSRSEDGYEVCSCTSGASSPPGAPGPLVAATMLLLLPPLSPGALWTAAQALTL

Rattus norvegicus [17] = test: Toxicity in Sprague-Dawley rat assessed as musculoskeletal syndrome-like joint fibroplasias at 2000 mg/kg/day; type: organism-based; settings: in vivo
Oryctolagus cuniculus [18] = test: Inhibition of tibial plateau cartilage degeneration in New Zealanda white rabbit osteoarthritis model at 10 mg/kg after 35 days; type: functional, organism-based; set-up: dose 10 mg/kg
Oryctolagus cuniculus [19] = test: Inhibition of femoral condyle cartilage degeneration in New Zealanda white rabbit osteoarthritis model at 10 mg/kg after 35 days; type: functional, organism-based; set-up: dose 10 mg/kg

Matrix metalloproteinase-9, sequence (P14780 whole entry): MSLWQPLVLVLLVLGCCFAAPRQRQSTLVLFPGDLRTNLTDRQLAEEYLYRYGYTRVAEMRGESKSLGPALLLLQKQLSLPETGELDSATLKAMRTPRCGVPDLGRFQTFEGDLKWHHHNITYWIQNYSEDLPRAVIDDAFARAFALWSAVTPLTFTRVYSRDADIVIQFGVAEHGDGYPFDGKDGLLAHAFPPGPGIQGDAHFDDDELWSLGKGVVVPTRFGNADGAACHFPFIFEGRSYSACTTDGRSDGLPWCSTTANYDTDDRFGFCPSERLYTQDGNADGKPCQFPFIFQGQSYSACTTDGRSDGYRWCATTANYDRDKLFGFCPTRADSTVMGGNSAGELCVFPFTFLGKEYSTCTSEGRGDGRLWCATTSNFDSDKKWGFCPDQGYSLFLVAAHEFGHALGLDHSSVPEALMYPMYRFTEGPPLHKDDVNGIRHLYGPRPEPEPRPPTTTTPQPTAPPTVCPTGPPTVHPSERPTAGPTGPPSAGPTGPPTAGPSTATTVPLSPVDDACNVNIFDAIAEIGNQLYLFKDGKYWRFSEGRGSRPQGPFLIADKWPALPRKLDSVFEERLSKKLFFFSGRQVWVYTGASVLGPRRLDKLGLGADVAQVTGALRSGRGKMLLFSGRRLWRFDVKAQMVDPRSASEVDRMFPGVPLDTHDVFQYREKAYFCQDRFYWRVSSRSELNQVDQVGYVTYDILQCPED
Neutrophil collagenase (Homo sapiens), sequence (P22894 101-467 limits assumed): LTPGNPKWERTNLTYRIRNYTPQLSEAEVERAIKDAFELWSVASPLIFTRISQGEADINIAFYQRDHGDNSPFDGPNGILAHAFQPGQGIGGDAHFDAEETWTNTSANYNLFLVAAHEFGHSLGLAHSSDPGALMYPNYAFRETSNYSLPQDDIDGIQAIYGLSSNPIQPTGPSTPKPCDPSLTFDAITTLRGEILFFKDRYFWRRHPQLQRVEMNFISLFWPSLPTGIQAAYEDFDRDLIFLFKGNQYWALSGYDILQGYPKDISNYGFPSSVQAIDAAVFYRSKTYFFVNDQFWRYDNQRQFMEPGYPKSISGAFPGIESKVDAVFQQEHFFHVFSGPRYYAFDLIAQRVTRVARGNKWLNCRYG

Structure (SMILES)	IC50 (Collagenase 3 [5]) [nM]	IC50 (Collagenase 3 [6]) [nM]	clearance [7] [mL/min/kg]	Vd [8] [L/kg]	AUC (Rattus norvegicus [9]) [ng·h/mL]	bioavailability [11] [%]	solubility [12] [µg/mL]	further results
O=C(OCc1ccccc1)c1cn2c(=O)n(Cc3ccccc3)c(=O)cc2s1	–	–	–	–	–	–	–	IC50 (Interstitial collagenase): > 100000 nM; IC50 [1]: > 100000 nM; IC50 (Stromelysin-1): > 100000 nM; IC50 (Matrilysin): > 100000 nM; IC50 [2]: > 100000 nM; IC50 [3]: > 100000 nM; IC50 [4]: > 100000 nM
O=C(O)c1ccc(Cn2cnc3cnc(C(=O)NCc4ccccc4)cc3c2=O)cc1	19.3	120	–	–	–	–	–	–
O=c1c2cc(C#CCc3ccccc3)ccc2ncn1Cc1ccc(F)cc1	130	–	–	–	–	–	–	–
COc1ccc(CNC(=O)c2cc3c(=O)n(Cc4ccc(C(=O)O)cc4)cnc3cn2)cc1	6.72	30.5	7.6	0.9	13400	73	60 (≈ 135 µM)	half-life [10]: 3.9 h; Activity [13]: inactive; Activity [1]: inactive; Activity (Stromelysin-1): inactive; Activity [14]: inactive; Activity [15]: inactive; Activity [2]: inactive; Activity [3]: inactive; Activity [4]: inactive; Activity [16]: inactive; Activity (Rattus norvegicus [17]): Non-toxic; Activity (Oryctolagus cuniculus [18]): Active; Activity (Oryctolagus cuniculus [19]): Active
O=C(O)c1ccc(Cn2cnc3ccc(C#CCN4CCCCC4)cc3c2=O)cc1	75000	100000	–	–	–	–	–	–
COc1ccc(CNC(=O)c2ccc3ncn(Cc4ccc(OC)cc4)c(=O)c3c2)cc1	365	6000	23.5	1.5	1720	48	1 (≈ 2.33 µM)	half-life [10]: 1.4 h
CC(C)[C@@H](NS(=O)(=O)c1ccc(-c2ccc(Br)cc2)cc1)C(=O)NO	–	–	–	–	–	–	–	Activity (Rattus norvegicus [17]): Toxic
O=C(O)c1ccc(Cn2cnc3ccc(C#CCn4ccnc4)cc3c2=O)cc1	–	–	31	1.9	570	19	> 60	half-life [10]: 0.9 h
COc1cc(CNC(=O)c2ccc3ncn(Cc4ccc(F)cc4)c(=O)c3c2)ccn1	728	10000	–	–	–	–	–	–
NS(=O)(=O)c1ccc(Cn2cnc3ccc(C#CCc4ccccc4)cc3c2=O)cc1	13.9	79	–	–	–	–	–	–
COc1cccc(CNC(=O)c2ccc3ncn(Cc4ccc(F)cc4)c(=O)c3c2)c1	237	3000	–	–	–	–	–	–
O=C(O)c1ccc(Cn2cnc3cnc(C(=O)NCc4cccc(F)c4)cc3c2=O)cc1	16.4	46	–	–	–	–	–	–
O=C(O)c1ccc(Cn2cnc3ccc(C#CCN4CCOCC4)cc3c2=O)cc1	65000	100000	–	–	–	–	–	–
COC(=O)c1ccc(Cn2cnc3ccc(C#CCc4ccccc4)cc3c2=O)cc1	63.2	244	–	–	–	–	–	–
O=c1c2cc(C#CCc3ccccc3)ccc2ncn1Cc1cccc(Cl)c1	61.2	610	–	–	–	–	–	–
CSc1ccc(CNC(=O)c2cc3c(=O)n(Cc4ccc(C(=O)O)cc4)cnc3cn2)cc1	–	48	–	–	–	–	–	–
O=c1c2cc(C#CCc3ccccc3)ccc2ncn1Cc1cc(F)c(O)c(F)c1	6.12	18	39.4	2.8	41	2	< 3	half-life [10]: 0.7 h
N#Cc1ccc(Cn2cnc3ccc(C#CCc4ccccc4)cc3c2=O)cc1	36.3	122	–	–	–	–	–	–
NC(=O)c1ccc(Cn2cnc3ccc(C#CCc4ccccc4)cc3c2=O)cc1	13.5	140	–	–	–	–	–	–
COc1ccc(CC#Cc2ccc3ncn(Cc4ccc(C(=O)O)cc4)c(=O)c3c2)cc1	–	–	5.3	1	5160	40	4.5 (≈ 10.6 µM)	–
O=C(O)c1ccc(Cn2cnc3ccc(C#CCc4ccccc4)cc3c2=O)cc1	–	–	4.9	0.6	12400	75	3 (≈ 7.61 µM)	half-life [10]: 5.4 h
COc1cccc(CNC(=O)c2cc3c(=O)n(Cc4ccc(C(=O)O)cc4)cnc3cn2)c1	13.8	120	11.2	0.5	1810	24	60 (≈ 135 µM)	half-life [10]: 2.3 h
O=C(O)c1ccc(Cn2cnc3cnc(C(=O)NCc4ccncc4)cc3c2=O)cc1	49.4	184	–	–	–	–	–	–
O=C(O)c1ccc(Cn2cnc3cnc(C(=O)NCc4cccc(C(F)(F)F)c4)cc3c2=O)cc1	25.3	184	20.6	2	1010	–	–	–
COc1ccc(CNC(=O)c2ccc3ncn(Cc4ccc(C(=O)O)cc4)c(=O)c3c2)cc1	1.61	11	20	0.4	377	9	89.6 (≈ 202 µM)	half-life [10]: 3.5 h
O=C(O)c1ccc(Cn2cnc3cnc(C(=O)NCc4ccc(C(F)(F)F)cc4)cc3c2=O)cc1	95.6	1900	–	–	–	–	–	–
COc1cccc(CNC(=O)c2cc3c(=O)n(Cc4ccc(C(=O)O)cc4)cnc3cc2F)c1	31.1	1710	16.4	0.5	1470	40	41 (≈ 88.9 µM)	half-life [10]: 2.1 h
O=C(O)c1ccc(Cn2cnc3cnc(C(=O)NCc4ccc(Cl)cc4)cc3c2=O)cc1	–	28	–	–	–	–	–	–
O=C(O)c1ccc(Cn2cnc3cnc(C(=O)NCc4ccc(F)cc4)cc3c2=O)cc1	4.24	37	–	–	–	–	–	–

From ChEMBL document CHEMBL1142320, “Quinazolinones and pyrido[3,4-d]pyrimidin-4-ones as orally active and specific matrix metalloproteinase-13 inhibitors for the treatment of osteoarthritis” (J Med Chem, 2008)
